Several values for one entry are separate records, joined by “and”; a condition that tells them apart may be missing. Identical values can stand only once.
Experiment: xn = mol fraction of the nth substance listed

C[N+]1(CCOCCOCC[N+]2(C)CCCC2)CCCC1.N#C[N-]C#N.N#C[N-]C#N + CC[n+]1ccn(C)c1.O=S(=O)([N-]S(=O)(=O)C(F)(F)F)C(F)(F)F + O=S(=O)([N-]S(=O)(=O)C(F)(F)F)C(F)(F)F.[Li+]
100 kPa, x1 = 0.4178, x2 = 0.4469
Conditions	electrical conductivity [S/m]
298 K	0.244
303 K	0.317
313 K	0.431
323 K	0.64
333 K	0.832
343 K	1.1

CCCCCC[n+]1ccn(C)c1.N#C[S-] + CN1CCCC1=O
viscosity [mPa·s], 101 kPa
Conditions	x1 = 0.001079	x1 = 0.001613	x1 = 0.002068	x1 = 0.00265	x1 = 0.003379	x1 = 0.004077	x1 = 0.004588	x1 = 0.005383
288.15 K	2.143	2.148	2.155	2.162	2.168	2.173	2.182	2.186
298.15 K	1.805	1.809	1.82	1.826	1.833	1.841	1.847	1.854
308.15 K	1.567	1.576	1.585	1.593	1.6	1.613	1.619	1.624
318.15 K	1.337	1.35	1.357	1.37	1.38	1.389	1.397	1.402

CC[NH3+].O=[N+]([O-])[O-] + O
Conditions	viscosity
288.15 K, 101.33 kPa, x2 = 0.574	5.43 mPa·s and 7.928 mPa·s
293.15 K, 100 kPa, x2 = 0.1088	20.97 mPa·s
293.15 K, 100 kPa, x2 = 0.3682	7.63 mPa·s
293.15 K, 100 kPa, x2 = 0.47	6.34 mPa·s
293.15 K, 100 kPa, x2 = 0.579	5.03 mPa·s
293.15 K, 101.33 kPa, x2 = 0.574	4.86 mPa·s and 7.175 mPa·s
298 K, 101 kPa, x2 = 0.7	3.42 mPa·s
298 K, 101 kPa, x2 = 0.95	1.15 mPa·s
298.15 K, 100 kPa, x2 = 0.7889	2.16 mPa·s
298.15 K, 100 kPa, x2 = 0.8895	1.48 mPa·s
298.15 K, 101.33 kPa, x2 = 0.574	4.415 mPa·s and 6.559 mPa·s
303.15 K, 100 kPa, x2 = 0.1088	15.74 mPa·s
303.15 K, 100 kPa, x2 = 0.2597	7.78 mPa·s
303.15 K, 100 kPa, x2 = 0.7889	1.95 mPa·s
303.15 K, 100 kPa, x2 = 0.8895	1.34 mPa·s
303.15 K, 101.33 kPa, x2 = 0.574	3.953 mPa·s and 5.989 mPa·s
308.15 K, 100 kPa, x2 = 0.1088	13.76 mPa·s
308.15 K, 100 kPa, x2 = 0.47	4.52 mPa·s
308.15 K, 101.33 kPa, x2 = 0.574	3.571 mPa·s and 5.567 mPa·s
313.15 K, 100 kPa, x2 = 0	22.67 mPa·s
313.15 K, 100 kPa, x2 = 0.579	3.26 mPa·s
313.15 K, 101.33 kPa, x2 = 0.574	3.247 mPa·s and 5.268 mPa·s
318.15 K, 100 kPa, x2 = 0.47	3.71 mPa·s
318.15 K, 100 kPa, x2 = 0.7889	1.49 mPa·s
318.15 K, 101.33 kPa, x2 = 0.574	2.96 mPa·s and 4.826 mPa·s
323.15 K, 101.33 kPa, x2 = 0.574	2.709 mPa·s and 4.535 mPa·s
328.15 K, 101.33 kPa, x2 = 0.574	2.479 mPa·s and 4.213 mPa·s
333.15 K, 101.33 kPa, x2 = 0.574	2.281 mPa·s and 4.065 mPa·s
338.15 K, 101.33 kPa, x2 = 0.574	2.102 mPa·s and 3.912 mPa·s
343.15 K, 101.33 kPa, x2 = 0.574	1.945 mPa·s

FC1CC(F)(F)C(F)(F)C1(F)F (stereo not drawn) + CCCC[N+]1(C)CCCC1.FC(F)(F)C(F)(F)[P-](F)(F)(F)(C(F)(F)C(F)(F)F)C(F)(F)C(F)(F)F
101 kPa
Conditions	electrical conductivity [S/m]	viscosity [mPa·s]
298.1 K, x2 = 0	–	1.65
298.1 K, x2 = 0.252	–	8.05
298.1 K, x2 = 0.438	–	21.3
298.1 K, x2 = 0.653	0.275	–
298.1 K, x2 = 0.842	0.167	–
303 K, x2 = 0.177	0.746	–
303 K, x2 = 0.434	0.424	–
303 K, x2 = 0.839	0.21	–
303 K, x2 = 0.844	–	87.6
308.1 K, x2 = 0.077	0.594	–
313 K, x2 = 0.183	0.88	–
318.1 K, x2 = 0.077	0.699	–
318.1 K, x2 = 0.437	–	11.2
318.1 K, x2 = 0.836	0.359	–
323 K, x2 = 0.655	–	21.17

Source: the CheMixHub ionic liquid set
